{"source": "patent US12410133B2", "about": "“Crystalline (r)-5-carbamoylpyridin-3-yl-2-methyl-4-(3-(trifluoromethoxy)benzyl)piperazine-1-carboxylate, compositions and methods of use thereof” (Celgene Corporation, priority 2018, dated 2025)", "key": {"[1]": {"assay": "Interconversion study: competitive slurry of Form A and B", "type": "physicochemical", "details": "from RT to 50° C.", "experimental": "An interconversion study of crystal forms was performed. To understand the thermodynamic stability relationship between Form A and B, competitive slurry experiments were performed at RT and 50° C. in water and toluene. Prior to the study, Form A was used to saturate the corresponding solvent before it was filtered to obtain a near-saturated solution. Equal amounts of Form A and B samples were weighed and then mixed with the prepared near-saturated solution to form a new suspension, which was stirred magnetically (˜1000 rpm) at RT and 50° C."}, "[2]": {"assay": "Dynamic vapor sorption (DVS) of Form A", "type": "physicochemical", "experimental": "Dynamic vapor sorption (DVS) was performed on a Surface Measurement Systems DVS Intrinsic. The relative humidity at 25° C. were calibrated against deliquescence point of LiCl, Mg(NO3)2, and KCl. Sample sizes were between 10-20 mg. Gas and flow rate was nitrogen, 200 mL/min; dm/dt: 0.002%/min."}, "physchem": {"assay": "physchem", "details": "thermodynamic from solid"}, "[3]": {"assay": "Accelerated solid-state stability study of Form A", "type": "physicochemical", "experimental": "Solid-state stability evaluation (accelerated conditions) was performed on Form A under conditions of 25° C./60% RH and 40° C./75% RH. The detailed procedure utilized for stability evaluation is listed below:\n1) weigh approximately 30 mg of Form A sample into each 3-mL vial;\n2) cover the vial with Parafilm® and poke 15 holes on the Parafilm® with a needle;\n3) put the vial in a stability chamber of 25° C./60% RH or 40° C./75% RH; and\n4) sample for XRPD, TGA, DSC, HPLC purity and assay tests after 2, 4 and 6 weeks and 3 months."}}, "data": [{"smiles": "C[C@@H]1CN(Cc2cccc(OC(F)(F)F)c2)CCN1C(=O)Oc1cncc(C(N)=O)c1", "note": "[Form A, (R)-5-carbamoylpyridin-3-yl-2-methyl-4-(3-(trifluoromethoxy)benzyl)piperazine-1-carboxylate]", "values": [{"measurement": "Thermodynamic stability relationship between Form A and B", "setting": "[1]", "result": "thermodynamically more stable than Form B"}, {"measurement": "Form change after the DVS test (XRPD comparison)", "setting": "[2]; 25° C., between 0 and 95% RH", "result": "no form change was observed"}, {"measurement": "Water uptake (DVS)", "setting": "[2]; 25° C./80% RH", "result": 0.05, "unit": "%"}, {"measurement": "solubility", "setting": "physchem; organic solvent or mixture, Approximate solubility, 1,4-dioxane, RT", "result": "> 22", "unit": "mg/mL"}, {"measurement": "solubility", "setting": "physchem; organic solvent or mixture, Approximate solubility, 2-MeTHF, RT", "result": "> 23", "unit": "mg/mL"}, {"measurement": "solubility", "setting": "physchem; organic solvent or mixture, Approximate solubility, ACN, RT", "result": "> 24", "unit": "mg/mL"}, {"measurement": "solubility", "setting": "physchem; organic solvent or mixture, Approximate solubility, Acetone, RT", "result": "> 17", "unit": "mg/mL"}, {"measurement": "solubility", "setting": "physchem; organic solvent or mixture, Approximate solubility, Anisole, RT", "result": "> 20", "unit": "mg/mL"}, {"measurement": "solubility", "setting": "physchem; organic solvent or mixture, Approximate solubility, CHCl3, RT", "result": "> 19", "unit": "mg/mL"}, {"measurement": "solubility", "setting": "physchem; organic solvent or mixture, Approximate solubility, DCM, RT", "result": "> 19", "unit": "mg/mL"}, {"measurement": "solubility", "setting": "physchem; organic solvent or mixture, Approximate solubility, DMSO, RT", "result": "> 20", "unit": "mg/mL"}, {"measurement": "solubility", "setting": "physchem; organic solvent or mixture, Approximate solubility, EtOAc, RT", "result": "> 26", "unit": "mg/mL"}, {"measurement": "solubility", "setting": "physchem; organic solvent or mixture, Approximate solubility, EtOH, RT", "result": "> 17", "unit": "mg/mL"}, {"measurement": "solubility", "setting": "physchem; organic solvent or mixture, Approximate solubility, IPA, RT", "result": "> 24", "unit": "mg/mL"}, {"measurement": "solubility", "setting": "physchem; organic solvent or mixture, Approximate solubility, IPAC, RT", "result": "> 21", "unit": "mg/mL"}, {"measurement": "solubility", "setting": "physchem; organic solvent or mixture, Approximate solubility, MIBK, RT", "result": "> 24", "unit": "mg/mL"}, {"measurement": "solubility", "setting": "physchem; organic solvent or mixture, Approximate solubility, MTBE, RT", "result": "7.7 to 11.5", "unit": "mg/mL"}, {"measurement": "solubility", "setting": "physchem; organic solvent or mixture, Approximate solubility, MeOH, RT", "result": "> 23", "unit": "mg/mL"}, {"measurement": "solubility", "setting": "physchem; organic solvent or mixture, Approximate solubility, NMP, RT", "result": "> 21", "unit": "mg/mL"}, {"measurement": "solubility", "setting": "physchem; organic solvent or mixture, Approximate solubility, THF, RT", "result": "> 26", "unit": "mg/mL"}, {"measurement": "solubility", "setting": "physchem; organic solvent or mixture, Approximate solubility, n-heptane, RT", "result": "< 0.9", "unit": "mg/mL"}, {"measurement": "solubility", "setting": "physchem; organic solvent or mixture, Approximate solubility, toluene, RT", "result": "4.5 to 6", "unit": "mg/mL"}, {"measurement": "solubility", "setting": "physchem; water, Approximate solubility, H2O, RT", "result": "> 1", "unit": "mg/mL"}, {"measurement": "API (RRT 1.00)", "setting": "[3]; 2 weeks, 25° C./60% RH", "result": 99.84, "unit": "% Area"}, {"measurement": "Assay vs. 5° C. control", "setting": "[3]; 2 weeks, 25° C./60% RH", "result": 101.2, "unit": "%"}, {"measurement": "Crystal form", "setting": "[3]; 2 weeks, 25° C./60% RH", "result": "Form A"}, {"measurement": "HPLC Purity", "setting": "[3]; 2 weeks, 25° C./60% RH", "result": 99.84, "unit": "area %"}, {"measurement": "Imp.1 (RRT 0.81)", "setting": "[3]; 2 weeks, 25° C./60% RH", "result": 0.07, "unit": "% Area"}, {"measurement": "Imp.2 (RRT 1.04)", "setting": "[3]; 2 weeks, 25° C./60% RH", "result": "— (—: <0.05.)"}, {"measurement": "Imp.3 (RRT 1.74)", "setting": "[3]; 2 weeks, 25° C./60% RH", "result": 0.09, "unit": "% Area"}, {"measurement": "API (RRT 1.00)", "setting": "[3]; 2 weeks, 40° C./75% RH", "result": 99.78, "unit": "% Area"}, {"measurement": "Assay vs. 5° C. control", "setting": "[3]; 2 weeks, 40° C./75% RH", "result": 98.1, "unit": "%"}, {"measurement": "Crystal form", "setting": "[3]; 2 weeks, 40° C./75% RH", "result": "Form A"}, {"measurement": "HPLC Purity", "setting": "[3]; 2 weeks, 40° C./75% RH", "result": 99.78, "unit": "area %"}, {"measurement": "Imp.1 (RRT 0.81)", "setting": "[3]; 2 weeks, 40° C./75% RH", "result": 0.08, "unit": "% Area"}, {"measurement": "Imp.2 (RRT 1.04)", "setting": "[3]; 2 weeks, 40° C./75% RH", "result": 0.07, "unit": "% Area"}, {"measurement": "Imp.3 (RRT 1.74)", "setting": "[3]; 2 weeks, 40° C./75% RH", "result": 0.07, "unit": "% Area"}, {"measurement": "API (RRT 1.00)", "setting": "[3]; 3 months, 25° C./60% RH", "result": 99.86, "unit": "% Area"}, {"measurement": "Assay vs. 5° C. control", "setting": "[3]; 3 months, 25° C./60% RH", "result": 97.3, "unit": "%"}, {"measurement": "Chiral Purity", "setting": "[3]; 3 months, 25° C./60% RH", "result": 100}, {"measurement": "Crystal form", "setting": "[3]; 3 months, 25° C./60% RH", "result": "Form A"}, {"measurement": "HPLC Purity", "setting": "[3]; 3 months, 25° C./60% RH", "result": 99.86, "unit": "area %"}, {"measurement": "Imp.1 (RRT 0.81)", "setting": "[3]; 3 months, 25° C./60% RH", "result": 0.09, "unit": "% Area"}, {"measurement": "Imp.3 (RRT 1.74)", "setting": "[3]; 3 months, 25° C./60% RH", "result": 0.05, "unit": "% Area"}, {"measurement": "API (RRT 1.00)", "setting": "[3]; 3 months, 40° C./75% RH", "result": 99.86, "unit": "% Area"}, {"measurement": "Assay vs. 5° C. control", "setting": "[3]; 3 months, 40° C./75% RH", "result": 96.9, "unit": "%"}, {"measurement": "Chiral Purity", "setting": "[3]; 3 months, 40° C./75% RH", "result": 100}, {"measurement": "Crystal form", "setting": "[3]; 3 months, 40° C./75% RH", "result": "Form A"}, {"measurement": "HPLC Purity", "setting": "[3]; 3 months, 40° C./75% RH", "result": 99.86, "unit": "area %"}, {"measurement": "Imp.1 (RRT 0.81)", "setting": "[3]; 3 months, 40° C./75% RH", "result": 0.09, "unit": "% Area"}, {"measurement": "Imp.3 (RRT 1.74)", "setting": "[3]; 3 months, 40° C./75% RH", "result": 0.05, "unit": "% Area"}, {"measurement": "API (RRT 1.00)", "setting": "[3]; 4 weeks, 25° C./60% RH", "result": 99.86, "unit": "% Area"}, {"measurement": "Assay vs. 5° C. control", "setting": "[3]; 4 weeks, 25° C./60% RH", "result": 101.4, "unit": "%"}]}]}
